In patent US4061639A, “Quinolinesulfonyl compounds” (The Dow Chemical Company, priority 1976, dated 1977):

Tests used:
Experiment in all cases: agar dilution antimicrobial test (growth inhibition)
Assay type in all cases: cell-based
[1] = test system: C. pelliculosa; conditions: Hansenula anomala, read-out: Percent Growth Inhibition
Description: (§1) In representative activity tests, 8-quinolinesulfonyl bromide is dispersed in warm melted nutrient agar which is then poured into petri dishes and allowed to solidify, the quinoline compound being employed in an amount sufficient to provide from 10 to 500 parts by weight thereof per million parts (ppm) of the ultimate agar composition. The surface of the agar is then inoculated with a variety of bacterial and fungal pest organisms, and the inoculated plates are incubated under conditions conducive to bacterial and fungal growth. Similar check plates in which the agar contains no active quinoline or other toxic compound are similarly inoculated and incubated.
(§2) In such operations, 8-quinolinesulfonyl bromide gave 100% growth inhibition (kills) and control of the following organisms at the indicated concentrations in parts per million:
(§3) In comparative operations, 8-quinolinesulfonyl chloride was tested for antimicrobial activity at 500 ppm using identical agar dilution tests. The following table indicates the percent growth inhibition of the following organisms: […]

[2] = test system: Trichoderm Sp. Madison P-42; conditions: read-out: Percent Growth Inhibition
Description: as §1, §2, §3

[3] = test system: P. Str-10; conditions: read-out: Percent Growth Inhibition
Description: as §1, §2, §3

[4] = test system: C. albicans; conditions: Candida albicans, read-out: Percent Growth Inhibition
Description: as §1, §2, §3

[5] = test system: B. subtilis; conditions: Bacillus subtilis, read-out: Percent Growth Inhibition
Description: as §1, §2, §3

[6] = test system: C. ips; conditions: read-out: Percent Growth Inhibition
Description: as §1, §2, §3

[7] = test system: E. coli; conditions: Escherichia coli, read-out: Percent Growth Inhibition
Description: as §1, §2, §3

[8] = test system: P. pullulans; conditions: read-out: Percent Growth Inhibition
Description: as §1, §2, §3

[9] = test system: R. nigricans; conditions: Rhizopus stolonifer, read-out: Percent Growth Inhibition
Description: as §1, §2, §3

[10] = test system: S. aureus; conditions: Staphylococcus aureus, read-out: Percent Growth Inhibition
Description: as §1, §2, §3

[11] = test system: A. aerogenes; conditions: Klebsiella aerogenes, read-out: Percent Growth Inhibition
Description: as §1, §2, §3

[12] = test system: S. typhosa; conditions: read-out: Percent Growth Inhibition
Description: as §1, §2, §3

[13] = test system: M. phlei; conditions: Mycolicibacterium phlei, read-out: Percent Growth Inhibition
Description: as §1, §2, §3

## O=S(=O)(Cl)c1cccc2cccnc12 [8-Quinolinesulfonyl Chloride, 8-quinolinesulfonyl chloride]
[1]
  inhibition at 500 ppm: 0%
[2]
  inhibition at 500 ppm: 0%
[3]
  inhibition at 500 ppm: 0%
[4]
  inhibition at 500 ppm: 0%
[5]
  inhibition at 500 ppm: 0%
[6]
  inhibition at 500 ppm: 0%
[7]
  inhibition at 500 ppm: 0%
[8]
  inhibition at 500 ppm: 0%
[9]
  inhibition at 500 ppm: 0%
[10]
  inhibition at 500 ppm: 0%
[11]
  inhibition at 500 ppm: 0%
[12]
  inhibition at 500 ppm: 0%
[13]
  inhibition at 500 ppm: 50%
